# Patent US12251370B2, “Small molecule inhibitors of the BfrB:Bfd interaction” (BOARD OF SUPERVISORS OF LOUISIANA STATE UNIVERSITY AND …, priority 2018, dated 2025)
# Several values for one entry are separate records, joined by “and”; a condition that tells them apart may be missing. Equal values may be shown once.
# Experiments:
# [1] = system: P. aeruginosa PAO1; test: Effect of analogs on the potency of fluoroquinolone antibiotics, strain PAO1; format: cell-based, Pseudomonas aeruginosa; details: PAO1
# Method: (§1) The combined treatment was carried out similarly, ensuring that the final concentration of DMSO was 2%.
# [2] = system: P. aeruginosa clinical isolate MR3B; test: Effect of analog on ciprofloxacin potency, clinical isolate MR3B; format: cell-based, Pseudomonas aeruginosa
# Method: as §1
# [3] = system: P. aeruginosa cells; test: microbe, parasite or virus in culture; format: cell-based, Pseudomonas aeruginosa; details: 13 h
# Method: These experiments were carried out in 96 well plates, as described above. […] The 500-fold diluted solution was centrifuged and the cell-free supernatant was analyzed for pyoverdin by fluorescence spectrophotometry in a Synergy H1 microplate reader (BioTek) with excitation at 400 nm and emission at λmax=455 nm. Full emission spectra (430-550 nm) were also recorded using a Perkin Elmer LS50B spectrophotometer.
# As indicated above, genetic manipulations were used in prior work to delete the bfd gene (Δbfd) and evaluate the consequences of inhibiting the BfrB-Bfd interaction in P. aeruginosa.^18 Preventing the BfrB-Bfd interaction in the Δbfd mutant cells dysregulates iron homeostasis by causing the irreversible accumulation of iron in BfrB and the concomitant depletion of free iron levels in the cytosol. […] To analyze the levels of secreted pyoverdin, cells were pelleted and the supernatant was diluted 500-fold prior to measuring the fluorescence intensity at 455 nm (FIG. 7B).
# [4] = system: P. aeruginosa clinical isolate MR60; test: Effect of analog on ciprofloxacin potency, clinical isolate MR60; format: cell-based, Pseudomonas aeruginosa
# Method: as §1
# [5] = system: P. aeruginosa; test: Growth curves and IC50 determination in P. aeruginosa; format: cell-based, Pseudomonas aeruginosa (PAO1); details: Pseudomonas aeruginosa; M63 media; growth % from OD600 at 13 h; three independent experiments
# Method: Pre-cultures (5 mL LB media) were grown for 12 h at 37° C. and 220 rpm in 50 mL conical tubes (VWR International, PA) covered with an air permeable membrane. The cells were then centrifuged at 4,000 rpm for 10 min, the resultant cell pellets washed twice in M63 media and then diluted in M63 media to OD600=0.01. Stock solutions (100 mM) of analog in DMSO were prepared weekly and stored at 4° C. Prior to initiating experiments in 96 well plates, the analog stock solution was serially diluted to make 10 mM or 1 mM working solutions in DMSO. A small volume of the appropriate working solution was transferred to a glass vial, diluted with DMSO to 30 μL, and then diluted to a final volume of 1.5 mL with pre-culture cell suspension with an OD600=0.01. The resultant cell suspension (200 μL) was transferred to a clear-bottom polystyrene 96 well plate (VWR), and incubated at 35° C. and 205 cpm for 13 h in an Epoch 2 microplate spectrophotometer (Biotek Instruments, Inc., Vermont). The growth curve in the presence of Ciprofloxacin was obtained in the same plate. […] MIC determinations were carried out using standard broth microdilution methods in 48 well plates and modified M63 media. Cells were incubated at 35° C.
# [6] = system: ΔbfrB P. aeruginosa cells; test: Growth response of bfrB deletion mutant cells to analog; format: cell-based, Pseudomonas aeruginosa; details: M63 + 4 μM Fe; 15 h post-inoculation; viable cells vs untreated control
# Method: (§2) To this end, wild type and ΔbfrB cells were cultured in M63 media supplemented with 4 μM Fe, in the presence of different concentrations of analog. […] Since BfrB is not essential, it is likely that the cell can compensate for the absence of the iron storage protein. […] The sudden onset of toxicity observed in the second phase, which is not observed with the wild type cells, is probably related to off-target effects that expose a fitness vulnerability caused by the absence of BfrB. Consequently, it is possible to conclude that the dose-dependent growth defect elicited by 11 or 16 on wild type P. aeruginosa cells is largely a consequence of the interaction between the small molecule inhibitors and BfrB in the bacterial cell. This issue was investigated in additional detail (see below) by probing the phenotypic and biochemical response of wild type cells treated with the small molecule inhibitors.
# [7] = system: wild type P. aeruginosa cells; test: Growth response of wild type cells to analog (viable cell count); format: cell-based, Pseudomonas aeruginosa; details: M63 + 4 μM Fe; 15 h post-inoculation; viable cells vs untreated control
# Method: as §2
compound,measurement,setting,value
"O=C1NC(=O)c2c(NCCCc3cccc(O)c3)cccc21 [Analog 16, 4-((3-(3-Hydroxyphenyl)propyl)amino)isoindoline-1,3-dione]","% survival, fold lower relative to ciprofloxacin alone",[1]; analog 16 125 μM + ciprofloxacin 0.25 μg/mL,approximately 50 fold
same,"cell survival, fold lower relative to fluoroquinolone alone",[1]; analog 16 125 μM + levofloxacin 0.5 μg/mL,approximately 50 fold
same,"cell survival, fold lower relative to fluoroquinolone alone",[1]; analog 16 125 μM + norfloxacin 0.9 μg/mL,approximately 50 fold
same,survival relative to untreated control,"[1]; analog 16 only, 125 μM, 18 h",~30%
same,"survival, fold lower relative to ciprofloxacin alone",[2]; analog 16 + ciprofloxacin,approximately 20 fold
same,survival,[2]; analog 16 + ciprofloxacin 0.2 μg/mL,0.5%
same,survival,"[2]; analog 16 only, 125 μM",ca. 50%
same,viability at 125 µM,"[3]; Pseudomonas aeruginosa, read-out: viable cells relative to untreated control",~30%
same,"pyoverdin secreted, fluorescence normalized to viable cells (CFU/mL), relative to untreated control","[3]; analog 125 μM, emission 455 nm",~4.5 fold and ~4 fold
same,"survival, fold lower relative to ciprofloxacin alone",[4]; analog 16 + ciprofloxacin,approximately 4 fold
same,survival,[4]; analog 16 + ciprofloxacin 1 μg/mL,ca. 10%
same,survival,"[4]; analog 16 only, 125 μM",ca. 40%
same,IC50,[5],121 µM
same,growth response of ΔbfrB mutant cells,[6],biphasic growth response
same,growth response of wild type cells,[7],monophasic dose-dependent growth defect
